Test results reported in patent US10766888B1, “HMOX1 inducers” (Mitobridge Inc., priority 2019, dated 2020).
≈ marks a conversion by molar mass, not a printed value. Like-named read-outs stand apart in the source and are kept apart here.

Tests used:
[1] = PD study: compound concentration in mouse liver; type: in vivo, C57BL/6 mice; conditions: male, C57BL/6, mouse, 50 mg/kg, 50 mpk oral; for concentration at 3 h: read-out: Liver Conc uM (3 h); for concentration at 6 h: read-out: Liver Conc uM (6 h)
Description: 9-10 week old male C57BL/6 mice were dosed orally with 50 mg/kg of vehicle or compound formulated in 5% w/v tween 80 and 0.5% methyl cellulose. At indicated time points (3 and 6 hours or or 4 and 8 hours post-dosing as shown in the results below), whole blood was collected, animal was sacrificed and liver was collected. Blood samples were transferred to vials containing 4 μL of 10% w/v EDTA, centrifuged at 6000 rpm for 8 in below 10° C. to obtain plasma. Samples were frozen and later processed for HMOX1 protein levels as indicated below: […]

hERG channel = hERG channel (Homo sapiens, UniProt Q12809); test: hERG manual patch clamp assay; type: cell-based; conditions: HEK 293 cells stably expressing hERG channel, pH 7.35, 10 μM compound
Description: Cell Lines and Cell Culture
HEK 293 cell line stably expressing hERG channel (Cat # K1236) was purchased from Invitrogen. The cells were cultured in 85% DMEM, 10% dialyzed FBS, 0.1 mM NEAA, 25 mM HEPES, 100 U/mL Penicillin-Streptomycin and 5 μg/mL Blasticidin and 400 μg/mL Geneticin. Cells were split using TrypLE™ Express about three times a week, and maintained between ˜40% to ˜80% confluence. Before the assay, the cells were transferred onto the coverslips at 5×10^5 cells/per 6 cm cell culture dish and induced with doxycycline at 1 μg/mL for 48 hours.
• 1) External solution (in mM): 132 NaCl, 4 KCl, 3 CaCl2, 0.5 MgCl2, 11.1 glucose, and 10 HEPES (pH adjusted to 7.35 with NaOH) • 2) Internal solution (in mM): 140 KCl, 2 MgCl2, 10 EGTA, 10 HEPES and 5 MgATP (pH adjusted to 7.35 with KOH) • 3) hERG currents were tested in presence of 10 μM compound concentration with final concentration of DMSO of 0.1%. Experimental Procedure • 1) Removed the coverslip from the cell culture dish and placed it on the microscope stage in bath chamber. • 2) Located a desirable cell using the 10× objective. Located the tip of the electrode under the microscope using the 10× objective by focusing above the plane of the cells. Once the tip was in focus, advanced the electrode downwards towards the cell using the coarse controls of the manipulator, while simultaneously moving the objective to keep the tip in focus. • 3) When directly over the cell, switched to the 40× objective and used the fine controls of the manipulator to approach the surface of the cell in small steps. • 4) Applied gentle suction through the side-port of the electrode holder to form a gigaohm seal. • 5) Used the Cfast to remove the capacity current that was in coincidence with the voltage step. Obtained the whole cell configuration by applying repetitive, brief, strong suction until the membrane patch ruptured. • 6) Set membrane potential to −60 mV at this point to ensure that hERG channels were not • open. The spikes of capacity current should then be cancelled using the Cslow on the amplifier. 7) Set holding potential to −90 mV for 500 ms; recorded current at 50 kHz and filtered at 10 kHz. Leaking current was tested at −80 mV for 500 ms. • 8) The hERG current was elicited by depolarizing at +30 mV for 4.8 seconds and then the voltage was taken back to −50 mV for 5.2 seconds to remove the inactivation and observe the deactivating tail current. The maximum amount of tail current size was used to determine hERG current amplitude. • 9) Recorded current for 120 seconds to assess the current stability. Only stable cells with recording parameters above threshold were applied for the compound administrations. • 10) Firstly vehicle control was applied to the cells to establish the baseline. […] In order to ensure the good performance of cultured cells and operations, the positive control, Dofetilide, with 5 dose concentration was also used to test the same batch of cells. Data Analysis
The following criteria were used to determine data acceptability. • 1) Initial seal resistance >1 GΩ; • 2) Leak currents <50% of the control peak tail currents at any time; • 3) The peak tail amplitude >250 pA; • 4) Membrane resistance Rm>500 MΩ; • 5) Access resistance (Ra)<10 MΩ; • 6) Apparent run-down of peak current <2.5% per min.
Data that met the above criteria for hERG current quality were further analyzed as the following steps. • 1) Percent hERG current inhibition was calculated using the following equation. • Note: PatchMaster or Clampfit software was used to extract the peak current from the original data.
[formula] • 2) The dose response curve of test compounds was plotted with percentage of hERG current inhibition against the concentration of test compounds using Graphpad Prism 6.0, and fit to a sigmoid dose-response curve with a variable slope.

[2] = test system: Human Heme Oxygenase-1 (HMOX-1); test: ELISA assay to measure human heme oxygenase-1 (HMOX-1) in HepG2 lysate; type: cell-based
Procedure, shortened: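 HO-1 protein levels were read as fold change over DMSO-treated cells, with EC50 derived from these values. Quantitation used a chemiluminescent streptavidin-HRP capture ELISA, calibrated with an HO-1 standard series starting at 20 ng/ml, run at 20 °C. Samples were HepG2 lysates made with Triton X100/EDTA buffer and diluted 1:20.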

Kinetic solubility = type: physicochemical; conditions: Dulbecco's phosphate buffer saline (DPBS), aqueous buffer, kinetic from dmso stock, DPBS pH 7.4, 25° C., 200 μM test compound
Procedure, shortened: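 Compound from 10 mM DMSO stock diluted to 200 μM final in DPBS pH 7.4 and, separately, in DMSO, in duplicate. Shaken 16 h at 25 °C, then centrifuged 20 min at 25 °C. Supernatant analysed by HPLC.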

[3] = HepG2, human HMOX1, as listed in Table 5, read-out: HMOX1 EC50 h
[4] = human HMOX1 protein level in HepG2 lysate, * = average of 2 or more EC50 determinations, NA = Not Active, read-out: EC50

Sequence of hERG channel (Q12809 whole entry): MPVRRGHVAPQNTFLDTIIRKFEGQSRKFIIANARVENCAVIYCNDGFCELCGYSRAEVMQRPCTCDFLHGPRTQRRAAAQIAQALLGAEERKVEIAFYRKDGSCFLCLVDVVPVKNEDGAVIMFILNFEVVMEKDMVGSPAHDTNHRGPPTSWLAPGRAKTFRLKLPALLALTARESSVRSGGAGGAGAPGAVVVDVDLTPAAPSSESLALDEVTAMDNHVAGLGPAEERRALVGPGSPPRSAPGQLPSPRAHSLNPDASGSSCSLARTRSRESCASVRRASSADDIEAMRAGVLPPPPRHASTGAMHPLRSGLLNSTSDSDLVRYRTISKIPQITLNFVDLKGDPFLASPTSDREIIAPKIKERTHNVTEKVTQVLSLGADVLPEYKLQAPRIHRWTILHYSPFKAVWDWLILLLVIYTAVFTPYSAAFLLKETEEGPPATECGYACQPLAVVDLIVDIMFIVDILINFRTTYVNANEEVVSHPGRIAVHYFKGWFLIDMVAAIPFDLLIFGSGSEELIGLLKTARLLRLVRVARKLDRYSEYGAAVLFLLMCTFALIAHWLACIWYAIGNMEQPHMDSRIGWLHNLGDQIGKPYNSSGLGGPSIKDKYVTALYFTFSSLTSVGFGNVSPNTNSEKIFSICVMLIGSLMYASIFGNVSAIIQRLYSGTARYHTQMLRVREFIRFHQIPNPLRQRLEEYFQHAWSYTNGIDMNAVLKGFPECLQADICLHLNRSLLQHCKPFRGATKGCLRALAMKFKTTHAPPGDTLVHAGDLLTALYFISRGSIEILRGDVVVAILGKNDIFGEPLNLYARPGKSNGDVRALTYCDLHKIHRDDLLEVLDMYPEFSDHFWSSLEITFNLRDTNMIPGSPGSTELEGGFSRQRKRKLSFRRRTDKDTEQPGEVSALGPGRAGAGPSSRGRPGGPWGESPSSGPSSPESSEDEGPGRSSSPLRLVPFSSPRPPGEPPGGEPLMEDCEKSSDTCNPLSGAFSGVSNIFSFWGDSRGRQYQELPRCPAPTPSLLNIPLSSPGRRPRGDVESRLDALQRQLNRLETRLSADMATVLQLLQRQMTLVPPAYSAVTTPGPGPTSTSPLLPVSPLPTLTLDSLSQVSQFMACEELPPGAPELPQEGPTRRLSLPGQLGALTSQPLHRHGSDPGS

| concentration at 3 h [1] | concentration at 6 h [1] | EC50 [2, 3] | EC50 [2, 4] | solubility at 16 h (Kinetic solubility) | Compound | inhibition at 10 µM (hERG channel) |
| --- | --- | --- | --- | --- | --- | --- |
| 63 µM | 5.4 µM | 1900 nM | 1900 nM | – | Cn1c(Nc2nc3cc(OC(F)(F)F)ccc3[nH]2)nc2cc(C(=O)O)ccc21 [Example 13, 1-methyl-2-((5-(trifluoromethoxy)-1H-benzo[d]imidazol-2-yl)amino)-1H-benzo[d]imidazole-5-carboxylic acid] | 34% |
| – | – | – | 1000 nM | 7.3 µM (≈ 3.07 µg/mL) | Cn1c(Nc2nc3ccccc3o2)nc2cc(C(=O)NCCN3CCOCC3)ccc21 [Example 20, 2-(benzo[d]oxazol-2-ylamino)-1-methyl-N-(2-morpholinoethyl)-1H-benzo[d]imidazole-5-carboxamide] | 59% |
| – | – | – | 700 nM | 12.4 µM | Cl.Cn1c(Nc2nc3ccccc3o2)nc2cc(C(=O)NCCN)ccc21 [Example 18, N-(2-aminoethyl)-2-(benzo[d]oxazol-2-ylamino)-1-methyl-1H-benzo[d]imidazole-5-carboxamide hydrochloride] | 12% |
| – | – | – | 1300 nM | 7.1 µM (≈ 3.19 µg/mL) | CCn1c(Nc2nc3ccc(OC(F)(F)F)cc3o2)nc2cc(C(=O)NCCO)ccc21 [Example 86, 1-ethyl-N-(2-hydroxyethyl)-2-((6-(trifluoromethoxy)benzo[d]oxazol-2-yl)amino)-1H-benzo[d]imidazole-5-carboxamide] | 64% |
| – | – | – | 1100 nM | 14.9 µM (≈ 5.61 µg/mL) | Cn1c(Nc2nc3ccc(C(F)(F)F)cc3o2)nc2cc(C(=O)O)ccc21 [Example 31, 1-methyl-2-((6-(trifluoromethyl)benzo[d]oxazol-2-yl)amino)-1H-benzo[d]imidazole-5-carboxylic acid] | 0% |
| – | – | – | 2200 nM | 6.1 µM (≈ 2.5 µg/mL) | CC(O)COCCNC(=O)c1ccc2c(c1)nc(Nc1nc3ccccc3o1)n2C (stereo not shown) [Example 25] | 8% |
| – | – | – | 400 nM | 5.1 µM (≈ 2.36 µg/mL) | CN(C)CCONC(=O)c1ccc2c(c1)nc(Nc1nc3ccc(C(F)(F)F)cc3o1)n2C [Example 122, N-(2-(dimethylamino)ethoxy)-1-methyl-2-((6-(trifluoromethyl)benzo[d]oxazol-2-yl)amino)-1H-benzo[d]imidazole-5-carboxamide] | 87% |
| – | – | – | 2000 nM | 8.6 µM (≈ 3.38 µg/mL) | Cn1c(Nc2nc3ccccc3o2)nc2cc(C(=O)NCC3(O)COC3)ccc21 [Example 26, 2-(benzo[d]oxazol-2-ylamino)-N-((3-hydroxyoxetan-3-yl)methyl)-1-methyl-1H-benzo[d]imidazole-5-carboxamide] | 18% |
| 217 µM | 162 µM | 2000 nM | 1300 nM | – | Cn1c(Nc2nc3ccc(OC(F)(F)F)cc3o2)nc2cc(C(=O)O)ccc21 [Example 44, 1-methyl-2-((6-(trifluoromethoxy)benzo[d]oxazol-2-yl)amino)-1H-benzo[d]imidazole-5-carboxylic acid] | 15% |
| – | – | – | 2100 nM | > 20 µM | CC(O)CNC(=O)c1ccc2c(c1)nc(Nc1nc3ccccc3o1)n2C (stereo not shown) [Example 23, 2-(benzo[d]oxazol-2-ylamino)-N-(2-hydroxypropyl)-1-methyl-1H-benzo[d]imidazole-5-carboxamide] | 24% |
| – | – | – | 1600 nM | 11.3 µM (≈ 4.57 µg/mL) | Cn1c(Nc2nc3ccccc3o2)nc2cc(C(=O)NCCN3CCCC3)ccc21 [Example 28, 2-(benzo[d]oxazol-2-ylamino)-1-methyl-N-(2-(pyrrolidin-1-yl)ethyl)-1H-benzo[d]imidazole-5-carboxamide] | 64% |
| – | – | – | 1200 nM | 11.2 µM (≈ 4.76 µg/mL) | COCCOc1ccc2nc(Nc3nc4cc(C(=O)NCCO)ccc4n3C)oc2c1 [Example 57, N-(2-hydroxyethyl)-2-((6-(2-methoxyethoxy)benzo[d]oxazol-2-yl)amino)-1-methyl-1H-benzo[d]imidazole-5-carboxamide] | 15% |
